This passage reports IC50 results from patent publication US7749996B2, “Heterotricyclic metalloprotease inhibitors” (Alantos Pharmaceutical Holdings, Inc., priority 2006, dated 2010).

Common to all, as to type: biochemical
In experiment [1] the target is T1, catalytic domain of MMP-13 enzyme (Homo sapiens, UniProt P45452).
T1 construct: stock solution of catalytic domain of MMP-13 enzyme (produced by Alantos or commercially available from Invitek (Berlin), Cat.# 30100812); purchased Invitek (Berlin) 30100812
The experiment can be described thus: Assay for determining MMP-13 inhibition (fluorescent substrate). The following applies: Table 1, activity group. The method, then: The typical assay for MMP-13 activity is carried out in assay buffer comprised of 50 mM Tris, pH 7.5, 150 mM NaCl, 5 mM CaCl2 and 0.05% Brij-35. Different concentrations of tested compounds are prepared in assay buffer in 50 μL aliquots. […] The mixture of enzyme and compound in assay buffer is thoroughly mixed and incubated for 10 min at room temperature. […] The time-dependent increase in fluorescence is measured at the 320 nm excitation and 390 nm emission by automatic plate multireader. The IC50 values are calculated from the initial reaction rates.

Experiment [2] deals with T2, catalytic domain of MMP-3 enzyme (Homo sapiens, UniProt P08254).
T2 construct: stock solution of the catalytic domain of MMP-3 enzyme (Biomol, Cat. No. SE-109); purchased Biomol SE-109
T2 sequence (P08254 100-272 limits assumed): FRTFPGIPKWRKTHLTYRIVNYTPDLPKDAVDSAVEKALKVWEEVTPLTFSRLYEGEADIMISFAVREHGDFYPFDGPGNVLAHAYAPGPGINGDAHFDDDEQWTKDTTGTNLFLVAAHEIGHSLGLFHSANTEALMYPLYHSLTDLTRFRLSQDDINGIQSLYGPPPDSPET
The experiment in a line: Assay for determining MMP-3 inhibition (NFF-3 fluorescent substrate). The following applies: Table 3, activity group. How it is done:
The typical assay for MMP-3 activity is carried out in assay buffer comprised of 50 mM MES, pH 6.0, 10 mM CaCl2 and 0.05% Brij-35. Different concentrations of tested compounds are prepared in assay buffer in 50 μL aliquots. […] The mixture of enzyme and compound in assay buffer is thoroughly mixed and incubated for 10 min at room temperature. […] The time-dependent increase in fluorescence is measured at the 330 nm excitation and 390 nm emission by an automatic plate multireader. The IC50 values are calculated from the initial reaction rates.

In experiment [3] the target is T3, activated MMP-8 enzyme (Homo sapiens, UniProt P22894).
T3 construct: purchased Calbiochem 444229
T3 sequence (P22894 101-467): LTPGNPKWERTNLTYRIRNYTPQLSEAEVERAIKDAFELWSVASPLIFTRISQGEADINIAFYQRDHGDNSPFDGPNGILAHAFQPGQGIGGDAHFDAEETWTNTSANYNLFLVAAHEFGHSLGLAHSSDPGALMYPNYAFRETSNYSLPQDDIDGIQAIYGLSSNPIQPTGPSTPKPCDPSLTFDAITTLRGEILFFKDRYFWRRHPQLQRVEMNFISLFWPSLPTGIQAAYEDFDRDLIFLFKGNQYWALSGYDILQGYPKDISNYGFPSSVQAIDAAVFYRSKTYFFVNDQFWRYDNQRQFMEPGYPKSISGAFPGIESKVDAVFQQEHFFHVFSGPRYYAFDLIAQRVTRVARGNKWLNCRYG
The experiment in a line: Assay for determining MMP-8 inhibition (fluorescent substrate). The following applies: Table 2, activity group. How it is done:
The typical assay for MMP-8 activity is carried out in assay buffer comprised of 50 mM Tris, pH 7.5, 150 mM NaCl, 5 mM CaCl2 and 0.05% Brij-35. Different concentrations of tested compounds are prepared in assay buffer in 50 μL aliquots. […] The mixture of enzyme and compound in assay buffer is thoroughly mixed and incubated for 10 min at 37° C. […] The time-dependent increase in fluorescence is measured at the 320 nm excitation and 390 nm emission by an automatic plate multireader at 37° C. The IC50 values are calculated from the initial reaction rates.

For the molecule `CCOC(=O)C1CCc2sc3nc(C(=O)NCc4ccc5c(c4)NC(=O)CO5)[nH]c(=O)c3c2C1` (stereo not shown) [2/208], the half-maximal inhibitory concentration (IC50) (commonly the concentration needed to halve the response being measured) was below 100 nM in experiment [1] and 250 to 20000 nM in experiment [2].

`CCOC(=O)CC1CCCc2sc3nc(C(=O)NCc4ccc5c(c4)NC(=O)CO5)[nH]c(=O)c3c21` (stereo not shown) [2/236]: the concentration for half-maximal inhibition (IC50) in experiment [2] fell in the range of 250 to 20000 nM.

On to `CCOC(=O)C1Cc2sc3nc(C(=O)NCc4ccc5c(c4)NC(=O)CO5)[nH]c(=O)c3c2C1` (stereo not shown) [2/210], for which the IC50 in experiment [1] was below 100 nM; in experiment [2] it was 250 to 20000 nM.

On to `CS(=O)(=O)c1ccc(CNC(=O)C2CCc3sc4nc(C(=O)NCc5ccc6c(c5)NC(=O)CO6)[nH]c(=O)c4c32)cc1` (stereo not shown) [2/170], for which the concentration for half-maximal inhibition (IC50) was below 100 nM in experiment [1] and below 250 nM in experiment [3].

In the case of `O=C1COc2ccc(CNC(=O)c3nc4sc5c(c4c(=O)[nH]3)CCS5)cc2N1` [2/121], the IC50 in experiment [1] is below 100 nM; in experiment [3] it was below 250 nM.

On to `CC(NC(=O)C1CCc2sc3nc(C(=O)NCc4ccc5c(c4)NC(=O)CO5)[nH]c(=O)c3c21)c1ccccc1` (stereo not shown) [2/175], for which the IC50 in experiment [1] was below 100 nM; in experiment [3] it was below 250 nM.

`Cc1cc(CNC(=O)C2CCc3sc4nc(C(=O)NCc5ccc6c(c5)NC(=O)CO6)[nH]c(=O)c4c32)ccc1F` (stereo not shown) [2/176]: the 50% inhibitory concentration (IC50) in experiment [1] was below 100 nM; in experiment [3], below 250 nM.

As for `CS(=O)(=O)N1CCc2ccc(CNC(=O)c3nc4sc5c(c4c(=O)[nH]3)CCC5)cc2C1` [2/538], the IC50 in experiment [1] fell in the range of 100 to 20000 nM; in experiment [3] it was 250 to 20000 nM.

As to `NC(=O)C1Cc2sc3nc(C(=O)NCc4ccc5c(c4)CN(c4c(N)c(=O)c4=O)CC5)[nH]c(=O)c3c2C1` (stereo not shown) [2/232], in experiment [2], the IC50 lay within 250 to 20000 nM.

As to `COc1cccc(CNC(=O)c2nc3sc4c(c3c(=O)[nH]2)CCS(=O)(=O)C4)c1` [2/129], the IC50 in experiment [1] was below 100 nM; in experiment [3] it was 250 to 20000 nM.

With `O=C(NCc1ccc2c(c1)OCCO2)c1nc2sc3c(c2c(=O)[nH]1)CCC3` [2/428], the concentration for half-maximal inhibition (IC50) in experiment [1] was in the range of 100 to 20000 nM; in experiment [3], 250 to 20000 nM.

Regarding `Nc1c(N2CCc3ccc(CNC(=O)c4nc5sc6c(c5c(=O)[nH]4)CCCCC6)cc3C2)c(=O)c1=O` [2/118], the values for the IC50 in experiment [1] and in experiment [3] were below 100 nM and below 250 nM, respectively.

As for `Nc1c(NCc2cc(CNC(=O)c3nc4sc5c(c4c(=O)[nH]3)CCC5)ccc2F)c(=O)c1=O` [2/417], the IC50 in experiment [1] is below 100 nM; in experiment [3], 250 to 20000 nM.

With `CC(=O)N1CCc2c(sc3nc(C(=O)NCc4ccc5c(c4)NC(=O)CO5)[nH]c(=O)c23)C1` [2/94], the half-maximal inhibitory concentration (IC50) in experiment [1] was below 100 nM; in experiment [3], below 250 nM.

Turning to `Cc1ccc(CNC(=O)C2CCc3sc4nc(C(=O)NCc5ccc6c(c5)NC(=O)CO6)[nH]c(=O)c4c32)cc1` (stereo not shown) [2/174], the figures for the half-maximal inhibitory concentration (IC50) in experiment [1] and in experiment [3] were below 100 nM and below 250 nM, respectively.

On to `Nc1c(N2CCc3ccc(CNC(=O)c4nc5sc6c(c5c(=O)[nH]4)CCS(=O)(=O)C6)cc3C2)c(=O)c1=O` [2/104], for which the half-maximal inhibitory concentration (IC50) in experiment [3] and in experiment [2] was below 250 nM throughout.

As to `Nc1c(N2CCc3ccc(CNC(=O)c4nc5sc6c(c5c(=O)[nH]4)CC(C(=O)O)C6)cc3C2)c(=O)c1=O` (stereo not shown) [4/14], the values for the half-inhibitory concentration (IC50) in experiment [1] and in experiment [3] were below 100 nM and below 250 nM, respectively.

`O=C1COc2ccc(CNC(=O)c3nc4ccc5c(c4c(=O)[nH]3)OCO5)cc2N1` [Example 28]: the IC50 is below 100 nM in experiment [1] and below 250 nM in experiment [2].

For `O=C1COc2ccc(CNC(=O)c3nc4cc5ccccc5cc4c(=O)[nH]3)cc2N1` [39/20], the figures for the IC50 in experiment [1] and in experiment [3] were 100 to 20000 nM and 250 to 20000 nM, respectively.

Regarding `COc1ccc2c(c1)CCc1sc3nc(C(=O)NCc4ccc5c(c4)CN(c4c(N)c(=O)c4=O)CC5)[nH]c(=O)c3c1-2` [2/108], the values for the IC50 in experiment [1] and in experiment [2] were below 100 nM and 250 to 20000 nM, respectively.

For the molecule `NC(=O)CNC(=O)C1CCc2sc3nc(C(=O)NCc4ccc5c(c4)NC(=O)CO5)[nH]c(=O)c3c21` (stereo not shown) [2/255], the results for the concentration for half-maximal inhibition (IC50) in experiment [1] and in experiment [3] were below 100 nM and below 250 nM, respectively.

Turning to `Cc1cccc(CNC(=O)c2nc3sc4c(c3c(=O)[nH]2)CCC4)c1` [2/383], the results for the 50% inhibitory concentration (IC50) in experiment [1] and in experiment [3] were 100 to 20000 nM and 250 to 20000 nM, respectively.

Regarding `O=C1COc2ccc(CNC(=O)c3nc4sc5c(c4c(=O)[nH]3)CCCCC5)cc2N1` [2/117], the IC50 in experiment [1] was below 100 nM; in experiment [3], below 250 nM.

`NC(=O)CC1CCCc2sc3nc(C(=O)NCc4ccc5c(c4)NC(=O)CO5)[nH]c(=O)c3c21` (stereo not shown) [2/240]: the IC50 in experiment [2] lay in the range of 250 to 20000 nM.

As for `CC(C)CNC(=O)C1Cc2sc3nc(C(=O)NCc4ccc5c(c4)NC(=O)CO5)[nH]c(=O)c3c2C1` (stereo not shown) [2/231], the half-inhibitory concentration (IC50) in experiment [1] is below 100 nM; in experiment [2], 250 to 20000 nM.

As for `Nc1c(N2CCc3ccc(CNC(=O)c4nc5sc6c(c5c(=O)[nH]4)CCC6)cc3C2)c(=O)c1=O` [2/52], the 50% inhibitory concentration (IC50) in experiment [1] was below 100 nM; in experiment [3], below 250 nM.

`O=C1COc2ccc(CNC(=O)c3nc4sc5c(c4c(=O)[nH]3)CCC5)cc2N1` [Example 1]: the values for the concentration for half-maximal inhibition (IC50) in experiment [1] and in experiment [3] were below 100 nM and below 250 nM, respectively.

In the case of `O=C1COc2ccc(CNC(=O)c3nc4sc5c(c4c(=O)[nH]3)CN(C(=O)CC(F)(F)F)C5)cc2N1` [Example 42/1], the IC50 in experiment [3] and in experiment [2] was 250 to 20000 nM in each case.

On to `O=C1COc2ccc(CNC(=O)c3nc4ccc5c(c4c(=O)[nH]3)CCC5)cc2N1` [2/245], for which the IC50 in experiment [1] was below 100 nM; in experiment [2] it was 250 to 20000 nM.

`O=C1COc2ccc(CNC(=O)c3nc4sc5ccccc5c4c(=O)[nH]3)cc2N1` [2/25]: the concentration for half-maximal inhibition (IC50) in experiment [1] was below 100 nM; in experiment [3] it was below 250 nM.

For the molecule `O=C1COc2ccc(CNC(=O)c3nc4sc5c(c4c(=O)[nH]3)C(C(=O)NCc3ccccc3)CC5)cc2N1` (stereo not shown) [2/167], the values for the IC50 in experiment [1] and in experiment [3] were below 100 nM and below 250 nM, respectively.

Turning to `NC(=O)C1CCCCc2sc3nc(C(=O)NCc4ccc5c(c4)NC(=O)CO5)[nH]c(=O)c3c21` (stereo not shown) [2/267], the IC50 in experiment [1] was below 100 nM; in experiment [3], below 250 nM.

As for `O=C(NCc1cccc(F)c1)c1nc2sc3c(c2c(=O)[nH]1)CCC3` [2/292], the half-inhibitory concentration (IC50) lay in the range of 100 to 20000 nM in experiment [1] and 250 to 20000 nM in experiment [3].

In the case of `Nc1c(N2CCc3ccc(CNC(=O)c4nc5sc6c(c5c(=O)[nH]4)CCOC6)cc3C2)c(=O)c1=O` [2/153], the 50% inhibitory concentration (IC50) in experiment [1] was below 100 nM; in experiment [3], below 250 nM.

Regarding `Cc1cc(CNC(=O)c2nc3sc4c(c3c(=O)[nH]2)CCS(=O)(=O)C4)ccc1F` [2/130], the IC50 is 100 to 20000 nM in experiment [1] and 250 to 20000 nM in experiment [3].

Regarding `O=C1COc2ccc(CNC(=O)c3nc4sc5c(c4c(=O)[nH]3)CCOC5)cc2N1` [2/152], the values for the IC50 in experiment [1] and in experiment [3] were below 100 nM and below 250 nM, respectively.

`Nc1c(N2CCc3ccc(CNC(=O)c4nc5sc6c(c5c(=O)[nH]4)CCS6)cc3C2)c(=O)c1=O` [2/122]: the results for the concentration for half-maximal inhibition (IC50) in experiment [1] and in experiment [3] were below 100 nM and below 250 nM, respectively.

For `CN(C)C(=O)C1CCc2sc3nc(C(=O)NCc4ccc5c(c4)NC(=O)CO5)[nH]c(=O)c3c21` (stereo not shown) [2/173], the IC50 is below 100 nM in experiment [1] and 250 to 20000 nM in experiment [3].

On to `COC(=O)c1ccc(CNC(=O)C2CCc3sc4nc(C(=O)NCc5ccc6c(c5)NC(=O)CO6)[nH]c(=O)c4c32)cc1` (stereo not shown) [2/169], for which the IC50 in experiment [1] was below 100 nM; in experiment [3], below 250 nM.

On to `O=C1COc2ccc(CNC(=O)c3nc4sc5c(c4c(=O)[nH]3)CN(c3ncccn3)C5)cc2N1` [Example 43], for which the half-inhibitory concentration (IC50) is below 100 nM in experiment [1] and below 250 nM in experiment [2].

Turning to `O=C1COc2ccc(CNC(=O)c3nc4sc5c(c4c(=O)[nH]3)CNC5)cc2N1` [Example 41], the figures for the half-maximal inhibitory concentration (IC50) in experiment [1] and in experiment [3] were below 100 nM and 250 to 20000 nM, respectively.
